Assay [1] deals with Runt-related transcription factor 1/Core-binding factor subunit beta (Homo sapiens, UniProt Q01196+Q13951). Description: inhibitors of RUNX1 Runt–CBFb-SMMHC binding, primary screen, biochemical, FRET, Cerulean-Runt, Venus-CBFb-SMMHC, uHTS (AID 1434).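 Note: partner is the CBFb-SMMHC leukemia fusion protein rather than wild-type CBFb.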 In kind it is protein assay.
Assay [2] concerns the target Heat shock cognate 71 kDa protein (Homo sapiens, UniProt P11142). The assay is described as follows: In Vitro Hsc70 Dose Response Fluorescence Polarization Assay. [Related pubchem assays: 1072 ]. In general terms: Fluorescence polarisation rises when a labelled molecule tumbles more slowly, as on binding a larger partner.
Assay [3] has as its target Glyceraldehyde-3-phosphate dehydrogenase (Homo sapiens, UniProt P04406).
Assay [4] addresses T1, Ubiquitin-conjugating enzyme E2 N (Homo sapiens, UniProt P61088).
T1 sequence (P61088 whole entry): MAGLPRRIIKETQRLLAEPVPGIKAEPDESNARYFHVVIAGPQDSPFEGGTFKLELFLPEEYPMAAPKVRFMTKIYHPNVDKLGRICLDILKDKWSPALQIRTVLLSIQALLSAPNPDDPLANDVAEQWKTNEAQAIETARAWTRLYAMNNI
Format: functional.

Another assay concerns the target T2, Bcl-2-related protein A1 (Mus musculus, UniProt Q07440).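 Note: confirmatory dose–response counterscreen on Bfl-1, used to check hits from a UBC13 polyubiquitin inhibitor campaign.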
T2 sequence (Q07440 whole entry): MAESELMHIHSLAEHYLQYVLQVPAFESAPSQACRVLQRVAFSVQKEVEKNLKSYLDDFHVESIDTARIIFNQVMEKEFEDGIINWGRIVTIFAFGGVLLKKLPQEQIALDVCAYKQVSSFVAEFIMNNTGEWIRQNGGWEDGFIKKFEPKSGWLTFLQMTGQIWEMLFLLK
In kind it is functional.

Assay [5] in a line: cytotoxicity in HEK-293T cells, dose response, cytotoxicity control for TCR NF-kB inhibitor project, luminescence, T-cell screen hits (AID 489026).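 Note: cells exposed to compound about 14 hours before the viability readout.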 In kind it is functional, cell-based.
Assay [6] has as its target C-C chemokine receptor type 6 (Homo sapiens, UniProt P51684). Description: CCR6 receptor antagonists, dose response, cell-based, luminescent beta-arrestin readout (AID 504728). Format: functional.
Another assay has as its system BJ. Description: cytotoxicity toward BJ-TERT fibroblasts, dose response, cell-based, RAS-independent, luminescence (AID 1933). The settings on record: Homo sapiens. Format: functional.
Assay [7] addresses DNA dC->dU-editing enzyme APOBEC-3G (Homo sapiens, UniProt Q9HC16). Description: Dose Response confirmation of small molecule APOBEC3G DNA Deaminase Inhibitors via a fluorescence-based single-stranded DNA deaminase assay. [Related pubchem assays (depositor defined):AID493012, AID493028]. In kind it is functional.
The subject of another assay is Vero. Description: Vero cell cytotoxicity, cytotoxicity control for flavivirus capping enzyme inhibitors (AID 588742). Format: functional. As to conditions: Chlorocebus sabaeus.
A further assay concerns the target T3, Streptokinase A (Streptococcus pyogenes serotype M1, UniProt P10520).
T3 sequence (P10520 whole entry): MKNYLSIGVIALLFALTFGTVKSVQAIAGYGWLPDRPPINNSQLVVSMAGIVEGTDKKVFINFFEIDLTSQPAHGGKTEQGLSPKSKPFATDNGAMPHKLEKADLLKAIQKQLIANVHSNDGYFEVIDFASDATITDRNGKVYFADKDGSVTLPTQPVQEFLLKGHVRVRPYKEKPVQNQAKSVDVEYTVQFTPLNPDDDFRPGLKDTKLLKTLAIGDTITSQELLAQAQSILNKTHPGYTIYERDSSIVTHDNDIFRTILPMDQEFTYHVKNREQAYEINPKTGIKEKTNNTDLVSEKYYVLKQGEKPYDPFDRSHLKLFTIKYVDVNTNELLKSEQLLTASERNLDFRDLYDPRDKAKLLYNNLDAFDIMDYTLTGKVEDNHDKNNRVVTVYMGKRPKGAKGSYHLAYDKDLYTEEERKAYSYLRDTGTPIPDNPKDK
The assay is described as follows: S. pyogenes streptokinase expression inhibitors, potency, dose response, plasminogen activation absorbance, OD405 (AID 1914).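 Note: secreted streptokinase activity via plasminogen activation per viability signal from cell pellet.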 Format: functional, Streptococcus pyogenes M1 GAS.

For assay [8], the target named is Vascular endothelial growth factor receptor 1 (Homo sapiens, UniProt P17948). Format: functional.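 Note: measured within a kinome-wide profiling panel, FLT1 as the panel member.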
The target in assay [9] is 5'-AMP-activated protein kinase catalytic subunit alpha-1 (Homo sapiens, UniProt Q13131). Format: functional.
The target of assay [10] is Tyrosine-protein kinase Lck (Homo sapiens, UniProt P06239). Format: functional.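 Note: lck was assayed as one member of a kinase panel.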
Assay [11] has as its target Glycogen synthase kinase-3 beta (Homo sapiens, UniProt P49841). Format: functional.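 Note: value comes from a broad kinome profiling panel, with GSK3B as the panel member.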
The target in assay [12] is cAMP-dependent protein kinase catalytic subunit PRKX (Homo sapiens, UniProt P51817). In kind it is functional.
Sequence of cAMP-dependent protein kinase catalytic subunit PRKX (P51817 whole entry): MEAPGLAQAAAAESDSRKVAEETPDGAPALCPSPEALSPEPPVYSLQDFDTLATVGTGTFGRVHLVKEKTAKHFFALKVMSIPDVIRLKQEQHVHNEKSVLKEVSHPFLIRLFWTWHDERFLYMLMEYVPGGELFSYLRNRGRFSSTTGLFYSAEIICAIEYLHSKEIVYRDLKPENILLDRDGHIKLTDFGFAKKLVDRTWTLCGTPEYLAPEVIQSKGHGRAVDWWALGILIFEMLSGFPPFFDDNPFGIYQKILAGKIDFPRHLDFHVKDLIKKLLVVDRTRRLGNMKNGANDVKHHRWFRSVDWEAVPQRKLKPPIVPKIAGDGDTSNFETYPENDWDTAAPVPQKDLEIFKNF
In assay [13] the target is Serine/threonine-protein kinase TBK1 (Homo sapiens, UniProt Q9UHD2). Description: Navigating the Kinome. Panel member name: TBK1. Format: functional.
Sequence of Serine/threonine-protein kinase TBK1 (Q9UHD2 whole entry): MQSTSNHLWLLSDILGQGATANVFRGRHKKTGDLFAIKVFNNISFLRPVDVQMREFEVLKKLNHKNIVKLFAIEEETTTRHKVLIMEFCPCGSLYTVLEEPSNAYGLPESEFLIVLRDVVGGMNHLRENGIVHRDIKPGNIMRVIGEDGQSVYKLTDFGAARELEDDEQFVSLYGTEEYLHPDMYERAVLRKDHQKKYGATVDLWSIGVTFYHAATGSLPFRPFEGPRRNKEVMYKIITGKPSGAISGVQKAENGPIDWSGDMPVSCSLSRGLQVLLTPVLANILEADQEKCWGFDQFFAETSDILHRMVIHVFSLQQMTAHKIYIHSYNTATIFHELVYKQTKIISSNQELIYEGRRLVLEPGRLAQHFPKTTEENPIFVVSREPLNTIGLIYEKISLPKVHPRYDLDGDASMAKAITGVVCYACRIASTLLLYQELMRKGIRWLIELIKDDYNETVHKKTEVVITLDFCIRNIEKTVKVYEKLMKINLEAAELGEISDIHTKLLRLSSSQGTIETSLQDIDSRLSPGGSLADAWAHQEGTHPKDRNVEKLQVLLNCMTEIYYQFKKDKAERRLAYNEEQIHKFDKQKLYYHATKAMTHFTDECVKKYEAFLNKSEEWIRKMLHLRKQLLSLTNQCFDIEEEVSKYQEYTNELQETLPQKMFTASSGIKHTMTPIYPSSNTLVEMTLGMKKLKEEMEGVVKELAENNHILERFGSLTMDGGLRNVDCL
The target in assay [14] is Serine/threonine-protein kinase PAK 4 (Homo sapiens, UniProt O96013). Format: functional.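 Note: value obtained within a kinome profiling panel in which PAK4 was one of the panel members.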
For assay [15], the target named is Rho-associated protein kinase 2 (Homo sapiens, UniProt O75116). Format: functional.
In assay [16] the target is Serine/threonine-protein kinase MRCK alpha (Homo sapiens, UniProt Q5VT25). Format: functional.
Assay [17] concerns the target Casein kinase II subunit alpha (Homo sapiens, UniProt P68400). Format: functional.
Assay [18] deals with Inhibitor of nuclear factor kappa-B kinase subunit beta (Homo sapiens, UniProt O14920). Format: functional.
Assay [19] has as its target 3-phosphoinositide-dependent protein kinase 1 (Homo sapiens, UniProt O15530). Format: functional.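 Note: value comes from the Navigating the Kinome panel, PDPK1 member.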
In assay [20] the target is Protein-tyrosine kinase 2-beta (Homo sapiens, UniProt Q14289). Format: functional.
Assay [21] has as its target Calcium/calmodulin-dependent protein kinase type II subunit gamma (Homo sapiens, UniProt Q13555). Format: functional.
Assay [22] addresses Serine/threonine-protein kinase 17A (Homo sapiens, UniProt Q9UEE5). Format: functional.
In assay [23] the target is Serine/threonine-protein kinase pim-3 (Homo sapiens, UniProt Q86V86). Format: functional.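 Note: value obtained as one member of a broad kinase panel profiling effort.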
In assay [24] the target is Mitogen-activated protein kinase 13 (Homo sapiens, UniProt O15264). In kind it is functional.
In a further assay the target is Insulin receptor (Homo sapiens, UniProt P06213). Format: functional.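 Note: insulin receptor kinase tested as one member of a kinome-wide kinase panel.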
The target in assay [25] is Serine/threonine-protein kinase Nek4 (Homo sapiens, UniProt P51957). Format: functional.
Sequence of Serine/threonine-protein kinase Nek4 (P51957 whole entry): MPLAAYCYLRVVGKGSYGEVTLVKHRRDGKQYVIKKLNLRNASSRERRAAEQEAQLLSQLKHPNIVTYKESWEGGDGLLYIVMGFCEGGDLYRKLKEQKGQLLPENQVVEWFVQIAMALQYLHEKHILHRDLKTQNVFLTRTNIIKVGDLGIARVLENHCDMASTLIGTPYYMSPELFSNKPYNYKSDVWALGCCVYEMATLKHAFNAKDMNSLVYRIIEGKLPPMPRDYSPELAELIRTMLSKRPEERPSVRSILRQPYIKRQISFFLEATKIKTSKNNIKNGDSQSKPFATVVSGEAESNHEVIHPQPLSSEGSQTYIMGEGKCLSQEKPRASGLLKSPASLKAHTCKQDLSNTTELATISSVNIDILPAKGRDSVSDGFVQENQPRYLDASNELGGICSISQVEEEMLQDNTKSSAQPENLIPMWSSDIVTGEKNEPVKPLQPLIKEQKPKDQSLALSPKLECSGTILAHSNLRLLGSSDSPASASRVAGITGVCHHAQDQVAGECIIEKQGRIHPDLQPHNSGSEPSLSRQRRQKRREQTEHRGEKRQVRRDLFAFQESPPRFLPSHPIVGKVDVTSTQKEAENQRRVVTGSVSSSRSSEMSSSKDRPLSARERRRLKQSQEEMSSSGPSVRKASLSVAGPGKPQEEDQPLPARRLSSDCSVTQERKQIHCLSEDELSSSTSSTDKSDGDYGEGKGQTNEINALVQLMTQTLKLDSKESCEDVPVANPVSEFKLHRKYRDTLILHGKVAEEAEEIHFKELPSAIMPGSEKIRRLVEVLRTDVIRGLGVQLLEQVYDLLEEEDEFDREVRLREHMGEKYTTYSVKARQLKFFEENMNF
In a further assay the target is SRSF protein kinase 1 (Homo sapiens, UniProt Q96SB4). Format: functional.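 Note: measured as one member of a kinome-wide kinase profiling panel.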
Sequence of SRSF protein kinase 1 (Q96SB4 whole entry): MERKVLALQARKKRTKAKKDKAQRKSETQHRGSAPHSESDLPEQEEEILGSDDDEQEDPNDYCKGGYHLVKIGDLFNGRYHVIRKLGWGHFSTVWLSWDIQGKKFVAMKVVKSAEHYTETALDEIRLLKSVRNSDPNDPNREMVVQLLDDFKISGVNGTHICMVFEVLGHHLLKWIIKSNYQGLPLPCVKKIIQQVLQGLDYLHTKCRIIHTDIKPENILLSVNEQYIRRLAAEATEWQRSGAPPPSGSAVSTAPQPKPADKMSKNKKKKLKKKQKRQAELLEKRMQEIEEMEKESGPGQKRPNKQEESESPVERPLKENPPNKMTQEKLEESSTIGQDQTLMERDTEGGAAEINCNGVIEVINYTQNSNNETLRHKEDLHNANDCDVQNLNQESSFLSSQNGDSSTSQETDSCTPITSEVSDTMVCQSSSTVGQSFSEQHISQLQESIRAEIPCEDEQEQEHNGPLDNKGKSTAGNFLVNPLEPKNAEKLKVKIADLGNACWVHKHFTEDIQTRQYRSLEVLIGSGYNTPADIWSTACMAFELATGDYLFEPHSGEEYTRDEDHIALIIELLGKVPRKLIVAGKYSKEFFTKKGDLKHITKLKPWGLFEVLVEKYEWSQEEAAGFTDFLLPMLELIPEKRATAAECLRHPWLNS
Assay [26] concerns the target Protein kinase C delta type (Homo sapiens, UniProt Q05655). Format: functional.
The target in assay [27] is Serine/threonine-protein kinase SIK2 (Homo sapiens, UniProt Q9H0K1). Description: Navigating the Kinome. Panel member name: SIK2. Format: functional.
Sequence of Serine/threonine-protein kinase SIK2 (Q9H0K1 whole entry): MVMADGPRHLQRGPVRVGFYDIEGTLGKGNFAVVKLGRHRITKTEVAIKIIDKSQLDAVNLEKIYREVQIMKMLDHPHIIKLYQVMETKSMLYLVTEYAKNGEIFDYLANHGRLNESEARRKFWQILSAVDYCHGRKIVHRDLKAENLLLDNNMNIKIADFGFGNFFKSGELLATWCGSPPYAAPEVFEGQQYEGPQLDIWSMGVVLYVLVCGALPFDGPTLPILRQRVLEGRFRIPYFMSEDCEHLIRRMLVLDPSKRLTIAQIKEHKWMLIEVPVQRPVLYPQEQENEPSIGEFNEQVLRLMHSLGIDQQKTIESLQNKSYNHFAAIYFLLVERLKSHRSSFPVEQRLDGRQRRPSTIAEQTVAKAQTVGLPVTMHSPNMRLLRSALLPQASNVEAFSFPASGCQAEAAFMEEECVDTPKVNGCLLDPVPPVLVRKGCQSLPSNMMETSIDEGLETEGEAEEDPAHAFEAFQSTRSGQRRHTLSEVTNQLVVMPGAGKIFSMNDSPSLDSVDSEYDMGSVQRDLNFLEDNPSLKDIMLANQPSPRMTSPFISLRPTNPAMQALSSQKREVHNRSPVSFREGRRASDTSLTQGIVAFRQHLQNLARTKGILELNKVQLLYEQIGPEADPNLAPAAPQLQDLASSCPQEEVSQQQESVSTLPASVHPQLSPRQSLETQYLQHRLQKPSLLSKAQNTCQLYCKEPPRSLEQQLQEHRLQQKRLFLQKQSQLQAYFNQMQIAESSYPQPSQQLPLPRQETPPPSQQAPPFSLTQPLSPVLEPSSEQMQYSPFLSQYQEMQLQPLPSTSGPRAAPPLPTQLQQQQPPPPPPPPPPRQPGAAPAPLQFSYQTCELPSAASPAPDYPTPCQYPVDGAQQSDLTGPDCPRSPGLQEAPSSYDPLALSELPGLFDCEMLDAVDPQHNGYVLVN
For assay [28], the target named is Protein kinase C iota type (Homo sapiens, UniProt P41743). Format: functional.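 Note: measured within a kinome-wide kinase panel, PRKCI as panel member.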

Active and inactive are the calls of the source.

The results in this text go back to ChEMBL document CHEMBL1201862, “PubChem BioAssay data set” (2004).

Sequence of C-C chemokine receptor type 6 (P51684 whole entry): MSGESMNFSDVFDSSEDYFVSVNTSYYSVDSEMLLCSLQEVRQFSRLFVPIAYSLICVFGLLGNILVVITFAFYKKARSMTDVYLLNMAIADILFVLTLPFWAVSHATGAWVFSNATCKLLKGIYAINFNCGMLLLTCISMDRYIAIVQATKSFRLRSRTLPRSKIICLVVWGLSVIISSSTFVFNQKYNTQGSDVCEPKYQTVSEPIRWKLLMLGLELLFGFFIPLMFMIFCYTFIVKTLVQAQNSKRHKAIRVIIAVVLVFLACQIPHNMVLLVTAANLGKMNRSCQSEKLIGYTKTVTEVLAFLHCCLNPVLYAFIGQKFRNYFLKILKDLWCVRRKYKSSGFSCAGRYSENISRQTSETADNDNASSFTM
Sequence of 3-phosphoinositide-dependent protein kinase 1 (O15530 whole entry): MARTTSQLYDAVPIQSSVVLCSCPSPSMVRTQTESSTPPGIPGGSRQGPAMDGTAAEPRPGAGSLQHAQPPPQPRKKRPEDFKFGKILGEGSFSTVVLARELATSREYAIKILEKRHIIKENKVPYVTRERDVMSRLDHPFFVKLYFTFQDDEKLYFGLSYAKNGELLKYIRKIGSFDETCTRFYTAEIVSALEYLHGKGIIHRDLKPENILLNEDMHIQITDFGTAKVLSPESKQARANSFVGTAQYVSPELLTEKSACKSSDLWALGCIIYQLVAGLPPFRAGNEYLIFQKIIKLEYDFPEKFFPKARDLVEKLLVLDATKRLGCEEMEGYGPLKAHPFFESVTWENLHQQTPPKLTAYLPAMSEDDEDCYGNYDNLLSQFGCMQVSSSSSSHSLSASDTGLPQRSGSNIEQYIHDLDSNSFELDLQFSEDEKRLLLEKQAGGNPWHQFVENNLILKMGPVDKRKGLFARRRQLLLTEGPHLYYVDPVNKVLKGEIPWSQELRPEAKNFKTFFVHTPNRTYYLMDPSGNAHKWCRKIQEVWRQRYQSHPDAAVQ
Sequence of Serine/threonine-protein kinase 17A (Q9UEE5 whole entry): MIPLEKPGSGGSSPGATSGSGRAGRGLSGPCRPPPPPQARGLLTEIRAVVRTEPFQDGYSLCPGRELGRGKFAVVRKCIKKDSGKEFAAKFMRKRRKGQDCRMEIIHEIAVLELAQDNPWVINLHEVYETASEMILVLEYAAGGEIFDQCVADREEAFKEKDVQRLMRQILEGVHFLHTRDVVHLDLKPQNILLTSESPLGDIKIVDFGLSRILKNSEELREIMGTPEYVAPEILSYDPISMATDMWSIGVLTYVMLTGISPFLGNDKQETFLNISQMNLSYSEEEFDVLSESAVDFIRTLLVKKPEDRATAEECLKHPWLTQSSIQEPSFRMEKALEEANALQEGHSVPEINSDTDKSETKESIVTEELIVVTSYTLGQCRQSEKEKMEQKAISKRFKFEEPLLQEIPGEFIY

The IC50 is the concentration that inhibits the measured activity by half. With `COc1cccc2c1NC(C(=O)O)C1CC=CC21` (centres undefined), the IC50 in assay [1] was > 100 µM (inactive); in assay [2] it was 25.2 µM (active); in assay [3], 88.9 µM (active); in [4], 19.1 µM (active); at Bcl-2-related protein A1, 1.1 µM (active).

By EC50 is commonly meant the concentration at which the effect is half-maximal. For `CCc1ccc(S(=O)(=O)/N=C2\C=C(Nc3ccc(O)cc3)C(=O)c3ccccc32)cc1`, the IC50 in assay [5] is 3.96 µM (active); in assay [6], > 66.6 µM (inactive). Further, the concentration giving a half-maximal response (EC50) with BJ is 1.51 µM (active).

One may read the CC50 as the concentration giving 50% cytotoxicity. For `O=C1/C(=C\c2cccc(O)c2O)SC(=S)N1Cc1ccccc1`, the IC50 in assay [7] was 47.2 µM (active). The CC50 with Vero was 16.1 µM (active).

Turning to `CC(C)(C)c1cc[n+](C2=C([N-]S(=O)(=O)c3cccs3)C(=O)c3ccccc3C2=O)cc1`, at Streptokinase A, the EC50 was 3.8 µM (active).

A word on the Ki: it is the equilibrium dissociation constant of an inhibitor or competing ligand from its target. As for `COc1c(-c2nc3ccccc3[nH]2)c(O)cc2oc(C)cc(=O)c12`, the Ki in assay [8] was 2 µM (active); in assay [9] it was 0.794 µM (active); in [10], > 6.31 µM (inactive); in assay [11], 0.398 µM (active); in assay [12] it was > 3.16 µM (inactive); in [13] it was 1.58 µM (active). Also, the Ki in assay [14] is > 5.01 µM (inactive).

A word on the pKi: it is the negative decadic logarithm of the Ki, by convention in mol/L. Read a high pKi as a low Ki. `Cc1ccc(F)c(NC(=O)Nc2ccc(-c3cccc4[nH]nc(N)c34)cc2)c1` [LINIFANIB] showed a pKi in assay [15] of 5.6. Besides, the Ki in assay [16] was > 10 µM (inactive); in assay [17] it was 5.01 µM (active); in assay [18], > 3.16 µM (inactive); in assay [19] it was > 3.98 µM (inactive); in [20] it was > 1.58 µM (inactive); in [21], 3.98 µM (active). The Ki in [22] was > 3.98 µM (inactive); in assay [23] it was > 7.94 µM (inactive); in assay [24], 2.51 µM (active); on Insulin receptor, 0.794 µM (active); in assay [25] it was > 6.31 µM (inactive); at SRSF protein kinase 1, 7.94 µM (active). Besides, the Ki in assay [26] was > 7.94 µM (inactive); in assay [27] it was > 3.98 µM (inactive); in assay [28], > 5.01 µM (inactive).
